Laboratory results: patent publication US10975068B2, “6-aminopyridin-3-yl thiazoles as modulators of RORγT” (Janssen Pharmaceutica NV, priority 2016, dated 2021)
Read-outs that look alike come from different tables or passages of the source.

Experiments:
[1] = target: human RORγt ligand binding domain (RORγt LBD) (Homo sapiens (Human), UniProt P51449); assay: RORγt ThermoFluor® assay (thermal shift binding); conditions: read-out: ThermoFluor® Assay, Kd
Summary of the method: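 His-tagged human RORγt LBD (0.065 mg/mL) with 60 μM 1,8-ANS in 100 mM Hepes pH 7.0, 10 mM NaCl, 2.5 mM GSH, 0.002% Tween-20 was heated at 1 °C/min.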

[2] = target: full-length human RORγt (Homo sapiens (Human), UniProt P51449); assay: RORγt (full-length human) reporter assay, Conditions B or C; type: cell-based; conditions: for RORγt (FL) Reporter Assay B or C, % inhibition (value marked *): marked *: footnote not given; for inhibition at 3 µM: at 3 μM compound concentration; for inhibition at 3 µM / inhibition at 1 µM: read-out: RORγt (FL) Reporter Assay B or C, % inhibition; for inhibition at 6 µM: read-out: RORγt (FL) Reporter Assay B or C, % inhibition @ 6 μM, Conditions B or C; for inhibition at 1 µM: at 1 μM compound concentration; for RORγt (FL) Reporter Assay B or C, % inhibition (value marked ***): marked ***: footnote not given
Sequence of full-length human RORγt (P51449 other isoform, or with tags, fused parts or gaps): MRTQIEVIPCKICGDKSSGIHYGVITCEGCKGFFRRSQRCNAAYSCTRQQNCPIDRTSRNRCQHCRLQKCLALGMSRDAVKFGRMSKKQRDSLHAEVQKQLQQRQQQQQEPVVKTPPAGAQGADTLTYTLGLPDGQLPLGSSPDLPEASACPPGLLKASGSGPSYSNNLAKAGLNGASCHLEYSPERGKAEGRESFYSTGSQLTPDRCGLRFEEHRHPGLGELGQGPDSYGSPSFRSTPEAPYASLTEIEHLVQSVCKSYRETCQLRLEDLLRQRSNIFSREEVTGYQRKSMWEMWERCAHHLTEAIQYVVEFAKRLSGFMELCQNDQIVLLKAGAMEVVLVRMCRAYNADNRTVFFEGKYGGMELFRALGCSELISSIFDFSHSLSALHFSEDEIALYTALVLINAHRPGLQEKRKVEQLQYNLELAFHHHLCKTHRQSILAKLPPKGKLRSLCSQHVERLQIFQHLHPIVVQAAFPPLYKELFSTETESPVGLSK
Summary of the method: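 HEK293T cells transiently co-transfected with GAL4-DBD–full-length human RORγt (nt 142-1635, NM_001001523.1) plus GAL4-firefly and CMV-Renilla luciferase reporters; compounds added 4-6 h post-transfection for 16-20 h in 1.3% FBS, 0.1% DMSO. Firefly signal normalized to DMSO and saturating reference compound, then to Renilla; IC50 from concentration plots.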

[3] = Conditions B or C, read-out: RORγt (FL) Reporter Assay B or C, IC50
[4] = read-out: RORγt (FL) Reporter Assay B or C, IC50

Sequence of human RORγt ligand binding domain (RORγt LBD) (P51449 other isoform, or with tags, fused parts or gaps): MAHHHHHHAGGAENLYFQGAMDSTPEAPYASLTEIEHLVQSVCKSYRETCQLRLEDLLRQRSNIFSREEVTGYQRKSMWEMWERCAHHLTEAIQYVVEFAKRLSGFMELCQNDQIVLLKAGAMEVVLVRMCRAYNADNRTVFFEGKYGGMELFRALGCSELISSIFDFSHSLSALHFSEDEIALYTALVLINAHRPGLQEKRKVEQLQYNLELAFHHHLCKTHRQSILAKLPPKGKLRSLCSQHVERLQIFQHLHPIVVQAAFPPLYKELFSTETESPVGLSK

Row | Kd [1] | RORγt (FL) Reporter Assay B or C, % inhibition (value marked *) ([2]; Conditions B or C) | IC50 [2, 3] | inhibition at 3 µM [2] | IC50 [2, 4] | SMILES | other results
1 | 9.5 nM | 104* % | 31 nM | – | – | CC[C@H](Nc1cc(C(F)F)c(-c2sc(C(=O)N[C@@H]3COC[C@@H]3O)nc2C(=O)N2CCC[C@@H]2C)cn1)C(F)(F)F (single isomer, unassigned) [Example 162, 5-(4-(Difluoromethyl)-6-(((S)-1,1,1-trifluorobutan-2-yl)amino)pyridin-3-yl)-N-((3R*,4R*)-4-hydroxytetrahydrofuran-3-yl)-4-((S)-2-methylpyrrolidine-1-carbonyl)thiazole-2-carboxamide] | –
2 | 1.6 nM | – | – | 104% | 20 nM | C[C@H]1CCCN1C(=O)c1nc(C(=O)NC2(CO)CCC2)sc1-c1cnc(NC(C)(C)C)cc1C(F)(F)F [Example 262, 5-[6-(tert-Butylamino)-4-(trifluoromethyl)-3-pyridyl]-N-[1-(hydroxymethyl)cyclobutyl]-4-[(2S)-2-methylpyrrolidine-1-carbonyl]thiazole-2-carboxamide] | –
3 | 0.26 nM | 111* % | 11 nM | – | – | C[C@H]1CC(F)(F)CN1C(=O)c1nc(C(=O)NCC(C)(C)O)sc1-c1cnc(NC(C)(C)C2CC2)cc1C(F)(F)F [Example 107, (S)-5-(6-((2-Cyclopropylpropan-2-yl)amino)-4-(trifluoromethyl)pyridin-3-yl)-4-(4,4-difluoro-2-methylpyrrolidine-1-carbonyl)-N-(2-hydroxy-2-methylpropyl)thiazole-2-carboxamide] | –
4 | 0.7 nM | 92* % | 49 nM | – | – | C[C@H]1CC(F)(F)CN1C(=O)c1nc(C(=O)N[C@H]2COC[C@H]2O)sc1-c1cnc(NC2(C)CCC2)cc1C(F)(F)F (relative stereo) [Example 184, 4-((S)-4,4-Difluoro-2-methylpyrrolidine-1-carbonyl)-N-((3S*,4S*)-4-hydroxytetrahydrofuran-3-yl)-5-(6-((1-methylcyclobutyl)amino)-4-(trifluoromethyl)pyridine-3-yl)thiazole-2-carboxamide] | –
5 | 2.8 nM | – | 20 nM | – | – | C[C@H](Nc1cc(C(F)(F)F)c(-c2sc(C(=O)NCC(C)(C)O)nc2C(=O)N2CCC(F)CC2)cn1)C1CC1 [Example 30, (S)-5-(6-((1-Cyclopropylethyl)amino)-4-(trifluoromethyl)pyridin-3-yl)-4-(4-fluoropiperidine-1-carbonyl)-N-(2-hydroxy-2-methylpropyl)thiazole-2-carboxamide] | inhibition at 6 µM [2]: 104%
6 | 5.2 nM | – | – | 87% | 100 nM | C[C@H]1CCCN1C(=O)c1nc(C(=O)N[C@H](C)C(C)(C)O)sc1-c1cnc(NC2(C)CCC2)cc1C(F)F [Example 321, 5-(4-(Difluoromethyl)-6-((1-methylcyclobutyl)amino)pyridin-3-yl)-N—((R)-3-hydroxy-3-methylbutan-2-yl)-4-((S)-2-methylpyrrolidine-1-carbonyl)thiazole-2-carboxamide] | –
7 | 6.2 nM | 106* % | 8.3 nM | – | – | C[C@H]1CCCN1C(=O)c1nc(C(=O)NC[C@H](O)C(C)(C)O)sc1-c1cnc(NC(C)(C)C)cc1C(F)(F)F (single isomer, unassigned) [Example 244, 5-(6-(tert-Butylamino)-4-(trifluoromethyl)pyridin-3-yl)-N—((S*)-2,3-dihydroxy-3-methylbutyl)-4-((S)-2-methylpyrrolidine-1-carbonyl)thiazole-2-carboxamide] | –
8 | 0.26 nM | – | 2.2 nM | – | – | C[C@H]1CCCCN1C(=O)c1nc(C(=O)NCC(C)(C)O)sc1-c1cnc(N[C@H]2CCCCC2(F)F)cc1C(F)(F)F (relative stereo) [Example 32, 5-(6-(((S*)-2,2-Difluorocyclohexyl)amino)-4-(trifluoromethyl)pyridin-3-yl)-N-(2-hydroxy-2-methylpropyl)-4-((S)-2-methylpiperidine-1-carbonyl)thiazole-2-carboxamide] | inhibition at 6 µM [2]: 109%
9 | 1.8 nM | 106* % | 200 nM | – | – | C[C@H]1CC(F)(F)CN1C(=O)c1nc(C(=O)NCC(C)(C)O)sc1-c1cnc(NC2(C)CCC2)cc1C(F)F [Example 168] | –
10 | 12 nM | – | – | 99% | 28 nM | C[C@H](Nc1cc(C(F)F)c(-c2sc(C(=O)N[C@H]3CC[C@H]3O)nc2C(=O)N2CCC[C@@H]2C)cn1)C(F)(F)F (relative stereo) [Example 390, 5-(4-(Difluoromethyl)-6-(((S)-1,1,1-trifluoropropan-2-yl)amino)pyridin-3-yl)-N-((1S*,2R*)-2-hydroxycyclobutyl)-4-((S)-2-methylpyrrolidine-1-carbonyl)thiazole-2-carboxamide] | –
11 | 8.1 nM | – | – | – | 52 nM | C[C@H]1CCCN1C(=O)c1nc(C(=O)N2CC[C@](C)(O)C2)sc1-c1cnc(NC(C)(C)C)cc1C(F)(F)F (relative stereo) [Example 365, (5-(6-(tert-Butylamino)-4-(trifluoromethyl)pyridin-3-yl)-2-((S*)-3-hydroxy-3-methylpyrrolidine-1-carbonyl)thiazol-4-yl)((S)-2-methylpyrrolidin-1-yl)methanone] | inhibition at 1 µM [2]: 92%
12 | 13 nM | – | – | 111% | 130 nM | C[C@H]1CCCN1C(=O)c1nc(C(=O)NC[C@H](O)CO)sc1-c1cnc(NC(C)(C)C)cc1C(F)(F)F [Example 363, 5-[6-(tert-Butylamino)-4-(trifluoromethyl)-3-pyridyl]-N-[(2S)-2,3-dihydroxypropyl]-4-[(2S)-2-methylpyrrolidine-1-carbonyl]thiazole-2-carboxamide] | –
13 | 0.36 nM | – | – | 107% | 20 nM | C[C@H]1CC(F)(F)CN1C(=O)c1nc(C(=O)NC2CCS(=O)(=O)CC2)sc1-c1cnc(NC(C)(C)C)cc1C(F)F [Example 431, 5-[6-(tert-Butylamino)-4-(difluoromethyl)-3-pyridyl]-4-[(2S)-4,4-difluoro-2-methyl-pyrrolidine-1-carbonyl]-N-(1,1-dioxothian-4-yl)thiazole-2-carboxamide] | –
14 | 0.55 nM | – | 6.9 nM | – | – | C[C@H]1CC(F)(F)CN1C(=O)c1nc(C(=O)NCC(C)(C)O)sc1-c1cnc(NC(C)(C)C)cc1C(F)(F)F [Example 83, (S)-5-(6-(tert-Butylamino)-4-(trifluoromethyl)pyridin-3-yl)-4-(4,4-difluoro-2-methylpyrrolidine-1-carbonyl)-N-(2-hydroxy-2-methylpropyl)thiazole-2-carboxamide] | RORγt (FL) Reporter Assay B or C, % inhibition (value marked ***) ([2]; Conditions B or C): 110*** %
15 | 0.71 nM | – | – | 90% | 97 nM | C[C@H](NC(=O)c1nc(C(=O)N2CC(F)(F)C[C@@H]2C)c(-c2cnc(NC3(C)CCC3)cc2C(F)F)s1)C(C)(C)O [Example 326, 4-((S)-4,4-Difluoro-2-methylpyrrolidine-1-carbonyl)-5-(4-(difluoromethyl)-6-((1-methylcyclobutyl)amino)pyridin-3-yl)-N—((S)-3-hydroxy-3-methylbutan-2-yl)thiazole-2-carboxamide] | –
16 | 3.2 nM | – | 35 nM | – | – | CC[C@@H](Nc1cc(C(F)F)c(-c2sc(C(=O)N[C@H](C)CO)nc2C(=O)N2CCC[C@@H]2C)cn1)C(F)(F)F [Example 206, 5-(4-(Difluoromethyl)-6-(((1R)-1-(trifluoromethyl)propyl)amino)-3-pyridyl)-N-((1R)-2-hydroxy-1-methyl-ethyl)-4-((2S)-2-methylpyrrolidine-1-carbonyl)thiazole-2-carboxamide] | RORγt (FL) Reporter Assay B or C, % inhibition (value marked ***) ([2]; Conditions B or C): 106*** %

Row | SMILES | Kd [1] | RORγt (FL) Reporter Assay B or C, % inhibition (value marked *) ([2]; Conditions B or C) | IC50 [2, 3] | inhibition at 3 µM [2] | IC50 [2, 4] | other results
17 | CC(C)(O)CNC(=O)c1nc(C(=O)N2C3CCC2CC3)c(-c2cnc(NC3CCCC3)cc2C(F)F)s1 [Example 46, 4-((1s,4s)-7-Azabicyclo[2.2.1]heptane-7-carbonyl)-5-(6-(cyclopentylamino)-4-(difluoromethyl)pyridin-3-yl)-N-(2-hydroxy-2-methylpropyl)thiazole-2-carboxamide] | 4.2 nM | 100* % | 29 nM | – | – | –
18 | CC(C)(C)Nc1cc(C(F)F)c(-c2sc(C(=O)N[C@@H]3CC[C@@H](O)C3)nc2C(=O)N2C3CCC2CC3)cn1 [Example 430, 4-((1s,4s)-7-Azabicyclo[2.2.1]heptane-7-carbonyl)-5-[6-(tert-butylamino)-4-(difluoromethyl)-3-pyridyl]-N-[(1R,3R)-3-hydroxycyclopentyl]thiazole-2-carboxamide] | 0.6 nM | – | – | – | – | IC50 ([2]; RORγt (FL) Reporter Assay B or C, IC50): 13 nM; inhibition at 1 µM [2]: 130%
19 | CC(C)(O)CNC(=O)c1nc(C(=O)N2C3CCC2CC3)c(-c2cnc(NC3CCCC3)cc2C(F)(F)F)s1 [Example 53, 4-((1s,4s)-7-Azabicyclo[2.2.1]heptane-7-carbonyl)-5-(6-(cyclopentylamino)-4-(trifluoromethyl)pyridin-3-yl)-N-(2-hydroxy-2-methylpropyl)thiazole-2-carboxamide] | 5.8 nM | 109* % | 23 nM | – | – | –
